“Also recorded” adds a separate entry of the source.
Key:
[1] = Concentration of therapeutic agents in blood and brain tissue in rat following oral administration; assay type: in vivo; settings: male SD rats; for Brain level: perfused brain homogenate; for Cmax: male, Sprague-Dawley, rat, plasma, po, 10 mg/kg; for drop in plasma concentration relative to the next larger compound pair: 2-1/3-1 vs vatiquinone/1-1, 4-1/5-1 vs 2-1/3-1; for brain level (in words): summary of Table 1 brain concentration data
Method: Example 7: Study of Concentration of Therapeutic Agents in Blood and Brain Tissue in Rat Following Oral Administration
This study was intended to examine and compare the concentration of the various therapeutic agents tested in blood and brain tissue shortly after oral administration to rats.
The experimental procedures were carried out in accordance with the guidelines of the European Community and local laws and policies and were approved by the Latvian Animal Protection Ethical Committee, Food and Veterinary Service, Riga, Latvia. Animals were housed in the animal facilities at the Latvian Institute of Organic Synthesis (LIOS) under standard conditions (21-23° C., 12 h light-dark cycle) with unlimited access to food (R70 diet, Lantmännen Lantbruk, Sweden) and water. Male Sprague Dawley (SD) rats (8 weeks old at the time of purchase, from Envigo) were used for the study and were allowed an acclimatization period of at least 1 week prior to treatment. No drugs or vaccines were administered before the start of the study. Only healthy animals were included in the study. Animals were weighed on the day of treatment (before treatment) to calculate the required volume of working solution of compound (i.e. therapeutic agent) administered. No drugs except the therapeutic agent to be tested were administered during the study. Rats were dosed orally with compound (1 times weight μL, solution 10 mg/mL, dissolved in sesame oil).
Animals were anaesthetized using 5% isoflurane inhalation at selected time points after administration of test compounds. Then chest was opened and blood drawn from the heart and collected in EDTA coated microtubes (Sarstedt). Transcardial perfusion was performed afterwards by perfusing ice-cold PBS solution for 4 minutes, ˜55 mL total perfusion volume. Afterwards brain tissues were collected in microtubes and frozen in liquid nitrogen. Blood was centrifuged for 3 min at 10000 g within 15 minutes of collection. Plasma was collected in low-binding microtubes (Nerbe plus) by adding 95 μL of plasma to 5 μL of 2% HCOOH to obtain 100 μL of plasma solution with HCOOH end concentration 0.1%. Plasma was frozen in liquid nitrogen and stored at −80° C.
Tissue samples were weighed in 2 mL micro centrifuge tubes. Microtubes were kept on ice throughout the procedure. Tissue homogenates were prepared using acidified (0.1% HCOOH) water by adding 4 times volume to weighed samples. Two metal beads were placed in each micro centrifuge tube and brain tissues homogenized using Bead Ruptor (Omni International, USA) for 60 s using speed 4 ms per cycle. Homogenates (96 uL) were transferred to 1.5 mL low binding micro centrifuge tubes. Homogenates were frozen and kept at −80° C. until sample extraction for LC/MS/MS analysis.
Extraction of spiked SD Rat EDTA plasma or brain homogenate standards was performed by adding to 100 μL of spiked rat plasma or brain homogenate standard sample of 400 μL of deproteinization solution, 1% formic acid in MeOH with IS (reserpine 15 ng/mL). Samples were vortex mixed for 10 sec at 2800 rpm and incubated on orbital shaker for 10 min at 200 rpm. Then vortex mixed for 10 sec at 2800 rpm and centrifugated at 12000 rpm for 30 min in 5° C. Supernatants were transferred to LC vials and used for analysis. Extraction of rat EDTA plasma or brain homogenate analytical samples was performed by adding to 96 μL of rat plasma or brain homogenate analytical sample of 4 μL of DMSO, vortex mix the samples. Then 400 μL of deproteinization solution, 1% formic acid in MeOH with IS (reserpine 15 ng/mL) were added. Samples were vortex mixed for 10 sec at 2800 rpm and incubated on orbital shaker for 10 min at 200 rpm. Then vortex mixed for 10 sec at 2800 rpm and centrifugated at 12000 rpm for 30 min in 5° C. Supernatants were transferred to LC vials and used for analysis.
Data collected for each of the various therapeutic agents tested (i.e. vatiquinone and Compounds 1-1, 2-1, 3-1, 4-1 and 5-1 are summarized in Table 1, below.

[2] = test system: frataxin deficient fibroblasts (Friedreich's ataxia patient fibroblast cell line GM03665); test: Frataxin deficient fibroblast viability assay (the BSO Assay); assay type: cell-based, human; settings: for EC50: Homo sapiens, Fibroblast, FA patient fibroblasts pretreated with drug 250 nM down to 6.125 nM the day before BSO 10 mM, MTT 48 hrs later; for BSO assay activity compared with vatiquinone (in words) / protection against ferroptosis (in words): summary of Table 1 BSO assay data
Method: Example 6: Frataxin Deficient Fibroblast Viability Assay (the “BSO Assay”)
This Example was used to evaluate the various new compositions for their potential efficacy in the treatment of Friedreich's Ataxia (FA or FRDA) based on their potential to inhibit ferroptosis based on this BSO assay—performed substantially as described in the above cited Reference (Matthias et al.).
The stock solutions of the test articles (and control compounds) were prepared in dimethyl sulfoxide (DMSO at 10 mM). Working stock solutions (2 times concentrated) were prepared on the day of the experiment in respective cell culture medium to be used for assay (detailed medium description below). A listing of compounds used as test articles in this Example 12 are found in Table 1, below.
A patient derived frataxin deficient fibroblast cell line was obtained from Coriell Institute. More specifically, the following cell lines/DNA samples were obtained from the NIGMS Human Genetic Cell Repository at the Coriell Institute for Medical Research: GM03665. To evaluate importance of various growth conditions on cell susceptibility to BSO toxicity cells were grown on:
MEM (Sigma-Aldrich) 15% Fetal Bovine Serum (FBS) without growth factors;
MEM (Sigma-Aldrich) 15% FBS with growth factors (Catalogue number 100-18B, Recombinant Human FGF-basic (154 a.a.) and catalogue number AF-100-15, Animal-Free Recombinant Human EGF from Peprotech);
MEM199/MEM EBS (Bioconcept Ltd.) 10% FBS, insulin 10 μg/ml, L-glutamine 2 mM with growth factors (Catalogue number 100-18B, Recombinant Human FGF-basic (154 a.a.) and catalogue number AF-100-15, Animal-Free Recombinant Human EGF from Peprotech).
To conduct an experiment, fibroblast cells (from all growth conditions) were seeded (100 μL (cells 3×10∧3/well) on 96-well plates in MEM199/MEM EBS medium 10% FBS, insulin 10 μg/mL, L-glutamine 2 mM with growth factors and allowed to grow on plate for 24 hrs. After 24 hrs., media was removed and then test compounds of interest were added (100 μL, 2 times concentrated stock) to 96-well plates (end DMSO concentration not exceeding 0.5%) and incubated for 24 hours. Then L-buthionine-sulfoximine (BSO, from Acros Organics, Cat. No. 235520010) was added (100 μL, 2 times concentrated stock) at end concentrations ranging from 1 to 10 mM. Both test compounds and BSO were dissolved in MEM199/MEM EBS medium 10% FBS, insulin 10 μg/mL, L-glutamine 2 mM with growth factors. Cell viability was monitored and either after 24- or 48-hours cell viability was assayed by MTT (Thiazolyl blue tetrazolium bromide) assay. For the MTT assay, media was removed and 100 μL of MTT 1 mg/mL was added, incubated for 2 hours at +37° C., then medium was removed and 100 μL of isopropanol added to dissolve sediment. Absorption was measured at 570 (OD570) and 650 (OD650) nm wavelengths. Control cells (vehicle instead of BSO and compound) and vehicle control (with BSO, but vehicle instead of test compound) were treated in the same manner as cells with BSO and compound. All cell media contained penicillin and streptomycin 100 U/mL each.
Absorption readouts were processed as follows: ValueΔ=ValueOD570-ValueOD650 and the obtained values were used to calculate cell viability as % of control cell (i.e., no BSO, no compound, just vehicle) viability.
Except as otherwise indicated in Table 1, all samples were run in at least 3 replicates for test compounds and at least 8 replicates for controls (i.e., both control (no BSO, no compound) and vehicle control (i.e., with BSO, no compound). Exact N per data points are indicated in the figures/table legends. Results for the compounds (test articles and controls) tested are listed in Table 1, below.
This is a cell-based assay measuring cytotoxicity which results from oxidative stress subsequent to depletion of endogenous glutathione defense mechanisms. […]

[3] = 10 mg/mL solution in sesame oil, LC/MS/MS
[4] = 10 mg/mL solution in sesame oil, EDTA plasma, LC/MS/MS

| SMILES | Brain level [1, 3] [ng/g] | Cmax [1, 4] [ng/mL] | EC50 [2] [nM] | BSO assay activity compared with vatiquinone (in words) [2] | protection against ferroptosis (in words) [2] | drop in plasma concentration relative to the next larger compound pair [1] [fold] | brain level (in words) [1] | Plasma Cmax [1, 4] [ng/mL] |
| --- | --- | --- | --- | --- | --- | --- | --- | --- |
| CC(C)=CCC/C(C)=C/CC/C(C)=C/CC[C@](C)(O)CCC1=C(C)C(=O)C(C)=C(C)C1=O [Compound 1-1, 2-[(3S,6E,10E)-3-hydroxy-3,7,11,15-tetramethyl-6,10,14-hexadecatrien-1-yl]-3,5,6-trimethyl-2,5-cyclohexadiene-1,4-dione] | 8.3 | ~500 | 16.6 | at least equivalent to that of vatiquinone; also recorded: as good as vatiquinone | protective against ferroptosis |  |  |  |
| CC(C)=CCC/C(C)=C/CC[C@@](C)(O)CCC1=C(C)C(=O)C(C)=C(C)C1=O [Compound 2-1, (R,E)-2-(3-hydroxy-3,7,11-trimethyldodeca-6,10-dien-1-yl)-3,5,6-trimethylcyclohexa-2,5-diene-1,4-dione] | 24.5 | ~100 | 141 | not quite as effective as vatiquinone | protective against ferroptosis | ~5 | comparable to those observed with vatiquinone |  |
| CC(C)=CCC/C(C)=C/CC[C@](C)(O)CCC1=C(C)C(=O)C(C)=C(C)C1=O [Compound 3-1, (S,E)-2-(3-hydroxy-3,7,11-trimethyldodeca-6,10-dien-1-yl)-3,5,6-trimethylcyclohexa-2,5-diene-1,4-dione] | 22.0 | ~100 | 41.2 | as good as vatiquinone | protective against ferroptosis | ~5 | comparable to those observed with vatiquinone |  |
| CC(C)=CCC[C@@](C)(O)CCC1=C(C)C(=O)C(C)=C(C)C1=O [Compound 4-1, (R)-2-(3-hydroxy-3,7-dimethyloct-6-en-1-yl)-3,5,6-trimethylcyclohexa-2,5-diene-1,4-dione] | 0 | 5.5 | 90.5 | not quite as effective as vatiquinone | protective against ferroptosis | ~20 | no concentration of these compounds detected |  |
| CC(C)=CCC[C@](C)(O)CCC1=C(C)C(=O)C(C)=C(C)C1=O [Compound 5-1, (S)-2-(3-hydroxy-3,7-dimethyloct-6-en-1-yl)-3,5,6-trimethylcyclohexa-2,5-diene-1,4-dione] | 0 | 3.2 | 39 | as good as vatiquinone | protective against ferroptosis | ~20 | no concentration of these compounds detected |  |
| CC(C)=CCC/C(C)=C/CC/C(C)=C/CC[C@@](C)(O)CCC1=C(C)C(=O)C(C)=C(C)C1=O [vatiquinone, 2-[(3R,6E, 10E)-3-Hydroxy-3,7,11,15-tetramethyl-6,10,14-hexadecatrien-1-yl]-3,5,6-trimethyl-2,5-cyclohexadiene-1,4-dione, reference compound] | 20.8 | ~500 | 40.7 |  | protective against ferroptosis |  |  | 457 |
